Measurements as given in patent US7314879B2, “Melanocortin receptor agonists” (Eli Lilly and Company, priority 2002, dated 2008).

Columns and labels:
[1] = target: T1, MC4 (Homo sapiens, UniProt P32245); assay: Radioligand binding assay: competitive inhibition of 125I-NDP-alpha-MSH binding to membranes of stably transfected HEK 293 cells; settings: 125I-NDP-alpha-MSH competition; Ki from IC50 by Cheng-Prusoff equation
T1 construct: expressed in transfected cells; host or cells: HEK 293
Description: The radioligand binding assay is used to identify competitive inhibitors of ^125I-NDP-alpha-MSH binding to cloned human MCRs using membranes from stably transfected human embryonic kidney (HEK) 293 cells.
HEK 293 cells transfected with human or rat melanocortinin receptors are grown either as adherent monolayers or suspension culture. Monolayer cells are grown in roller bottle cultures at 37° C. and 5% CO2/air atmosphere in a 3:1 mixture of Dulbecco's modified Eagle medium (DMEM) and Ham's F12 containing 25 mM L-glucose, 100 units/ml penicillin G, 100 microgram/ml streptomyocin, 250 nanogram/ml amphoterin B, 300 microgram/ml genticin and supplemented with 5% fetal bovine serum. Monolayer cells are adapted to suspension culture (Berg et al., Biotechniques Vol. 14, No.6, 1993) and are grown in spinner or shaker flasks (37° C. and 7.5% CO2/air overlay) in a modified DME/F12 medium containing 0.1 mM CaCl2, 2% equine serum and 100 microgram/ml sodium heparin (to prevent cell-cell aggregation). Cells are harvested by centrifugation, washed in PBS, and pellets are stored frozen at −80° C. until membrane preparations.
The cell pellets are resuspended in 10 volumes of membrane preparation buffer (i.e., 1 g pellet to 10 ml buffer) having the following composition: 50 mM Tris pH 7.5 @ 4° C., 250 mM sucrose, 1 mM MgCl2, Complete® EDTA-free protease inhibitor tablet (Boehringer Mannheim), and 24 micrograms/ml DNase I (Sigma, St. Louis, Mo.). The cells are homogenized with a motor-driven dounce using 20 strokes, and the homogenate is centrifuged at 38,000×g at 4° C. for 40 minutes. […]
Solutions of a compound of formula I (300 picomolar to 30 micromolar) or unlabelled NDP-alpha-MSH (1 picomolar to 100 nanomolar) are added to 150 microliters of membrane binding buffer to yield final concentrations (listed in parantheses). […] The radioactivity is quantified in a Wallac Trilux Microplate Scintillation counter. […]

[2] = target: T1, MC4; assay: Functional agonist assay in HEK 293 cells stably expressing melanocortin receptor (luciferase reporter / whole cell cAMP accumulation); type: cell-based; settings: for EC50: agonist potency, concentration giving half maximal stimulation; for % Rel. Eff.: relative efficacy compared to NDP-alpha-MSH defined as 100% agonist
Excerpt: Functional cell based assays are developed to discriminate agonists and antagonists.
Agonist Assay: HEK 293 cells stably expressing a human melanocortin receptor (see e.g., Yang, et al., Mol-Endocrinol., 11(3): 274-80, 1997) are dissociated from tissue culture flasks using a trypsin/EDTA solution (0.25%; Life Technologies, Rockville, Md.). Cells are collected by centrifugation and resuspended in DMEM (Life Technologies, Rockville, Md.) supplemented with 1% L-glutamine and 0.5% fetal bovine serum. Cells are counted and diluted to 4.5×10^5/ml.
A compound of formula I is diluted in dimethylsulfoxide (DMSO) (3×10^−5 to 3×10^−10 M final concentrations) and 0.05 volume of compound solution is added to 0.95 volumes of cell suspension; the final DMSO concentration is 0.5%. After incubation at 37° C./5% CO2 for 5 hours, cells are lysed by addition of luciferin solution (50 mM Tris, 1 mM MgCl2, 0.2% Triton-X100, 5 mM DTT, 500 micromolar Coenzyme A, 150 micromolar ATP, and 440 micromolar luciferin) to quantify the activity of the reporter gene luciferase, an indirect measurement of intracellular cAMP production.
Luciferase activity is measured from the cell lysate using a Wallac Victor 2 luminometer. The amount of lumen production which results from a compound of formula I is compared to that amount of lumens produced in response to NDP-alpha-MSH, defined as a 100% agonist, to obtain the relative efficacy of a compound. The EC50 is defined as the compound concentration that results in half maximal stimulation, when compared to its own maximal level of stimulation.
In the agonist assay, compounds are prepared as 10 mM and NDP-aMSH (control) as 33.3 μM stock solutions in 100% DMSO. These are serially diluted in 100% DMSO. The compound plate is further diluted 1:200 in compound dilution buffer (HBSS-092, 1 mM Ascorbic Acid, 1 mM IBMX, 0.6% DMSO, 0.1% BSA). The final concentration range being 10 μM-100 pM for compound and 33.33 nM-0.3 pM for control in 0.5% DMSO. Transfer 20 μl from this plate into four PET 96-well plates (all assays are performed in duplicate for each receptor).
HEK 293 cells stably transfected with the MC3R and MC4R were grown in DMEM containing 10% FBS and 1% Antibiotic/Antimycotic Solution. On the day of the assay the cells were dislodged with enzyme free cell dissociation solution and resuspended in cell buffer (HBSS-092, 0.1% BSA, 10 mM HEPES) at 1×e6 cells/ml. Add 40 μl of cells/well to the PET 96-well plates containing 20 ul diluted compound and control. Incubate @ 37° C. in a waterbath for 20 minutes. Stop the assay by adding 50 μl Quench Buffer (50 mM Na Acetate, 0.25% Triton X-100).
Radioligand binding assays were run in SPA buffer (50 mM Sodium Acetate, 0.1% BSA). The beads, antibody and radioligand were diluted in SPA buffer to provide sufficient volume for each 96-well plate. To each quenched assay well was added 100 ul cocktail containing 33.33 ul of beads, 33.33 μl antibody and 33.33 μl ^125 I-cAMP. This was based on a final concentration of 6.3 mg/ml beads, 0.65% anti-goat antibody and 61 pM of ^125I-cAMP (containing 25000-30000 CPM) in a final assay volume of 210 μl. The plates were counted in a Wallac MicroBeta counter after a 12-hour incubation.
The data was converted to pmoles cAMP using a standard curve assayed under the same conditions. The data was analyzed using Activity Base software to generate agonist potencies (EC50) and percent relative efficacy data to NDP-aMSH.

T1 sequence (P32245 whole entry): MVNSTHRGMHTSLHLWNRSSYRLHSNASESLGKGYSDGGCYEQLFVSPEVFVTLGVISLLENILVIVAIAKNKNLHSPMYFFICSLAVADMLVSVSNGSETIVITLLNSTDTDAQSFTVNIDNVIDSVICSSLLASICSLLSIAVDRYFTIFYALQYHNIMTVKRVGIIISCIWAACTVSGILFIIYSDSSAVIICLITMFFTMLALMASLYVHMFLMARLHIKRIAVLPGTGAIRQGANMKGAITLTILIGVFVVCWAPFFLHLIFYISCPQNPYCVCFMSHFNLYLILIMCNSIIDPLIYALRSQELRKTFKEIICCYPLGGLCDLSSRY

SMILES | Ki [1] | EC50 [2] | % Rel. Eff. [2]
CN1CCC(CC2CCCCC2)(N2CCN(C(=O)[C@@H](Cc3ccc(Cl)cc3)NC(=O)CC3NCc4ccccc43)CC2)CC1 (stereo partly drawn) [Example 10I] | 6.5 nM | 25.4 nM | 112%
CC(C)CC1(N2CCN(C(=O)[C@@H](Cc3ccc(Cl)cc3)NC(=O)CC3NCc4ccccc43)CC2)CCCC1 (stereo partly drawn) [Example 8I] | 28.8 nM | 99.8 nM | 124%
CN1CCC(Cc2ccccc2F)(N2CCN(C(=O)[C@@H](Cc3ccc(Cl)cc3)NC(=O)CC3NCc4ccccc43)CC2)CC1 (stereo partly drawn) [Example 4I] | 24.3 nM | 18.9 nM | 114%
